Results taken from patent US11186577B2, “Vasopressin receptor antagonists and products and methods related thereto” (BlackThorn Therapeutics, Inc., priority 2017, dated 2021).
Read-outs that look alike come from different tables or passages of the source.

Legend:
Type in all cases: in vitro ADME
[1] = system: MDR1 (P-glycoprotein); experiment: MDR1-MDCK effective efflux assay (Transwell, 10 μM, 1 hour), MDR1-MDCK cells; details: dog
Method in brief: (§1)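 Wild-type and MDR1-MDCK monolayers cultured 3 days were dosed with compound at 10 μM (0.1% DMSO) in HBSS/25 mM HEPES pH 7.4, in both A>B and B>A directions, for 1 h at 37 °C. Samples were quantified by LC-MS/MS to give Papp and efflux ratio. Effective efflux ratio = ER(MDR1-MDCK)/ER(wild-type); Lucifer Yellow checked monolayer integrity.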

[2] = MDR1-MDCK effective efflux assay (Transwell, 10 μM, 1 hour), wild-type MDCK cells; details: dog, MDCK
Method in brief: as §1

[3] = system: MDR1-MDCK cells; experiment: MDR1-MDCK effective efflux assay (Transwell, 10 μM, 1 hour), MDR1-MDCK cells; details: for Papp AB MDR1: MDR1-MDCK cells, apical to basolateral (A>B), 10 μM, 1 hour; for MDR1 EER / MDR1 ER: MDCK-MDR1
Method in brief: as §1

[4] = system: wild-type (WT) MDCK cells; experiment: MDR1-MDCK effective efflux assay (Transwell, 10 μM, 1 hour), wild-type MDCK cells; details: for Papp AB WT: wild-type MDCK cells, apical to basolateral (A>B), 10 μM, 1 hour; for WT ER: MDCK
Method in brief: as §1

[5] = MDCK-MDR1, pH 7.4, MDR1-MDCK cells, apical to basolateral (A>B), 10 μM, 1 hour, read-out: Papp AB MDR1
[6] = pH 7.4, wild-type MDCK cells, apical to basolateral (A>B), 10 μM, 1 hour, read-out: Papp AB WT
[7] = MDCK-MDR1, pH 7.4, Papp AB MDR1

Row | SMILES | Papp A→B at 1 h, 10 μM [1, 5] [×10⁻⁶ cm/s] | Papp A→B at 1 h, 10 μM [2, 6] [×10⁻⁶ cm/s] | Papp AB MDR1 [3] | Papp AB WT [4] | also measured
1 | COC(=O)N1Cc2cc(Cl)ccc2-n2c(C3CC4(C3)CN(c3ncccc3F)C4)nnc2C1C (stereo not shown) [compound 182] | > 20 | > 20 | – | – | –
2 | CC1c2nnc(C3CC4(C3)CN(c3ccccn3)C4)n2-c2ccc(Cl)cc2CN1C(=O)C1(F)CC1 (single isomer, unassigned) [Cpd 181A] | – | – | ++++ ((++++) denotes >20 (10^-6 cm/sec)) | ++++ ((++++) denotes >20 (10^-6 cm/sec)) | –
3 | FCCN1Cc2cc(Cl)ccc2-n2c(nnc2C2CC3(C2)CN(c2ccccn2)C3)C1 [compound 59] | 7 to 10 | > 20 | – | – | –
4 | O=C(N1Cc2cc(Cl)ccc2-n2c(nnc2C2CC3(C2)CN(c2cnccn2)C3)C1)C1(F)CC1 [compound 81] | – | – | – | – | Papp A→B at 1 h, 10 μM [1, 7]: 7 to 10 ×10⁻⁶ cm/s; MDR1 EER [3]: +; MDR1 ER [3]: +; WT ER [4]: +++; Papp A→B at 1 h, 10 μM ([2]; pH 7.4, Papp AB WT): > 20 ×10⁻⁶ cm/s
5 | COC(=O)N1Cc2cc(Cl)ccc2-n2c(C3CC4(C3)CN(c3cnccn3)C4)nnc2C1C (single isomer, unassigned) [Cpd 165A] | – | – | + ((+) denotes an apparent permeability <7 (10^-6 cm/sec)) | ++++ ((++++) denotes >20 (10^-6 cm/sec)) | –
6 | Clc1ccc2c(c1)CN(C1CC1)Cc1nnc(C3CC4(C3)CN(c3ccccn3)C4)n1-2 [compound 56] | > 20 | > 20 | – | – | –
7 | CC(C)OC(=O)N1Cc2cc(Cl)ccc2-n2c(C3CC4(C3)CN(c3ncccn3)C4)nnc2C1C (single isomer, unassigned) [Cpd 167A] | – | – | ++++ ((++++) denotes >20 (10^-6 cm/sec)) | ++++ ((++++) denotes >20 (10^-6 cm/sec)) | –
8 | CC(C)OC(=O)N1Cc2cc(Cl)ccc2-n2c(nnc2C2CC3(C2)CN(C(=O)C2CC2)C3)C1 [compound 153] | – | – | – | – | Papp A→B at 1 h, 10 μM [1, 7]: < 7 ×10⁻⁶ cm/s; MDR1 EER [3]: +; MDR1 ER [3]: +; WT ER [4]: ++; Papp A→B at 1 h, 10 μM ([2]; pH 7.4, Papp AB WT): > 20 ×10⁻⁶ cm/s
9 | CC(C)C(=O)N1Cc2cc(Cl)ccc2-n2c(nnc2C2CC3(C2)CN(c2ccccn2)C3)C1 [compound 71] | – | – | – | – | Papp A→B at 1 h, 10 μM [1, 7]: < 7 ×10⁻⁶ cm/s; MDR1 EER [3]: +; MDR1 ER [3]: +; WT ER [4]: ++++; Papp A→B at 1 h, 10 μM ([2]; pH 7.4, Papp AB WT): > 20 ×10⁻⁶ cm/s
10 | CC1c2nnc(C3CC4(C3)CN(c3ccc(F)cn3)C4)n2-c2ccc(Cl)cc2CN1C(=O)C1(F)CC1 (stereo not shown) [compound 174] | > 20 | > 20 | – | – | –
11 | CC(C)OC(=O)N1Cc2cc(Cl)ccc2-n2c(C3CC4(C3)CN(c3ncc(F)cn3)C4)nnc2C1C (single isomer, unassigned) [Cpd 201A] | – | – | ++++ ((++++) denotes >20 (10^-6 cm/sec)) | ++++ ((++++) denotes >20 (10^-6 cm/sec)) | –
12 | O=C(OC1CC1)N1Cc2cc(Cl)ccc2-n2c(nnc2C2CC3(C2)CN(c2ccc(F)cn2)C3)C1 [compound 90] | > 20 | > 20 | – | – | –
13 | CC1c2nnc(C3CC4(C3)CN(c3ccc(F)cn3)C4)n2-c2ccc(Cl)cc2CN1C(=O)C1(F)CC1 (single isomer, unassigned) [Cpd 174A] | – | – | ++++ ((++++) denotes >20 (10^-6 cm/sec)) | ++++ ((++++) denotes >20 (10^-6 cm/sec)) | –
14 | O=C(OC(CF)CF)N1Cc2cc(Cl)ccc2-n2c(nnc2C2CC3(C2)CN(c2ccc(F)cn2)C3)C1 [compound 79] | 10 to 20 | > 20 | – | – | –
15 | COC(=O)N1Cc2cc(Cl)ccc2-n2c(C3CC4(C3)CN(c3cccc(C)n3)C4)nnc2C1C (stereo not shown) [compound 180] | > 20 | > 20 | – | – | –
16 | CC1c2nnc(C3CC4(C3)CN(c3ncc(F)cn3)C4)n2-c2ccc(Cl)cc2CN1C(=O)OC1CC1 (single isomer, unassigned) [Cpd 192A] | – | – | ++++ ((++++) denotes >20 (10^-6 cm/sec)) | ++++ ((++++) denotes >20 (10^-6 cm/sec)) | –
17 | CC1c2nnc(C3CC4(C3)CN(c3ncccn3)C4)n2-c2ccc(Cl)cc2CN1C(=O)OC1CC1 (single isomer, unassigned) [Cpd 171A] | – | – | + ((+) denotes an apparent permeability <7 (10^-6 cm/sec)) | ++++ ((++++) denotes >20 (10^-6 cm/sec)) | –
18 | CC(CF)OC(=O)N1Cc2cc(Cl)ccc2-n2c(nnc2C2CC3(C2)CN(c2ccc(F)cn2)C3)C1 (stereo not shown) [compound 78] | > 20 | > 20 | – | – | –
19 | O=C(C(F)F)N1Cc2cc(Cl)ccc2-n2c(nnc2C2CC3(C2)CN(c2ccccn2)C3)C1 [compound 122] | 7 to 10 | > 20 | – | – | –
20 | FC(F)CN1Cc2cc(Cl)ccc2-n2c(nnc2C2CC3(C2)CN(c2ccccn2)C3)C1 [compound 52] | 10 to 20 | > 20 | – | – | –
